Reference: patent US6172112A, “Retinoids and use thereof” (priority 1999, dated 2001)
Entries after “also recorded” stand apart in the source; their conditions may differ. Like-named read-outs stand apart in the source and are kept apart here.

Experiments:
HL-60 cells = assay: retinoid induction of differentiation of HL-60 cells (NBT); format: cell-based; conditions: Homo sapiens, HL-60, 96 h; 4-day induction of differentiation; read-out: ED50 (nM) HL-60
Procedure: (§1) Human leukemia cell line HL-60 and NB4 were used for measuring the ability of retinoids to induce terminal differentiation. Both cell lines are predominantly promyelocytes and are induced by retinoic acid to mature to cells with many characteristics of mature granulocytes. The induction of this differentiation is the basis for assaying one of the biological activities of retinoic acid analogues. For the differentiation assay, HL-60 or NB4 cells were grown in nutrient medium with fetal bovine serum as detailed by Breitman (15).
(§2) The percentage of cells that gained this marker was measured microscopically. The percentage of positive cells was then plotted as a function of the retinoid concentration to determine ED50 and ED30 values used in the formation of isoboles.

mouse skin papilloma [1] = conditions: 45.9 nmol dose
Procedure: The mouse skin antipapilloma assay measured the ED50 values for retinoid tumor inhibition on the dorsal skin of mice. The inhibition of mouse skin papilloma by retinoids was performed according to a modification of the procedure developed by Verma and Boutwell (14) as reported previously by Muccio et al. (8).
The UAB30 retinoids were evaluated next for their activity in preventing the chemical induction of papillomas on mouse skin (14).

NB4 cells [2] = assay: retinoid induction of differentiation of NB4 cells (NBT); format: cell-based, Human; conditions: for EC50: NB-4, 96 h, read-out: ED50 (nM) NB4; for EC30: read-out: ED30 NB4 cell differentiation
Procedure: NB4 cells were obtained from Dr. Waxman after he received them from Dr. M. Lanotte. […] The cell were grown at 37° C. in a humidified atmosphere of 5% CO2 in air. Cell density was estimated on an electronic particle counter (Coulter electronic, Hialeah, Fla.) and cell viability with trypan bleu dye exclusion.
as §1, §2

mouse skin papilloma [3] = conditions: ref (8); cited from earlier work
[4] = system: acute promyelocytic leukemia (APL); conditions: patients with APL; cited from earlier work
chick skin CRABP = target: T1, chick skin CRABP (Gallus gallus, UniProt A0A8V1AB82); assay: chick skin CRABP radioligand binding assay; conditions: [3H]-(all-E)-RA radioligand
T1 sequence (A0A8V1AB82 88-225): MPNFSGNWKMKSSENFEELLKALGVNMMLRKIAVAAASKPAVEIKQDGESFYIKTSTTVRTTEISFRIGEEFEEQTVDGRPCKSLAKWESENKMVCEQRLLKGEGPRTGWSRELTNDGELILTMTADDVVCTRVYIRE

JMML cells = assay: inhibition of JMML spontaneous CFU-GM colony formation; conditions: Homo sapiens
Procedure: Mononuclear cells were separated by density gradient centrifugation, washed, and frozen in aliquots. […] No growth factors or other exogenous stimuli were added to the cultures. UAB retinoids and retinoic acid isomers were dissolved in either 100% ethanol or DMSO. Appropriate dilutions were made, and controls using the respective ethanol or DMSO concentration were set up in parallel. Varying doses of retinoids were added only once, 24 hours after initiation of the soft agar assays, by pipetting the retinoid solution on top of the soft agar and allowing the solution to enter the agar and interact with the cells by diffusion. The cultures were incubated for 14 days at 37° C. in a humidified atmosphere with 5% CO2.

in vivo toxicity = conditions: preliminary data
[5] = body weight in MNU mammary cancer study
NB4 cells [6] = assay: retinoid metabolism in NB4 cells; format: in vitro ADME
[7] = system: MNU-induced mammary cancers; assay: efficacy on MNU-induced mammary cancers; format: in vivo, Sprague-Dawley rats; conditions: 200 mg/kg diet
RARα = target: T2, RARα (Homo sapiens, UniProt P10276); conditions: CV-1 cells
T2 sequence (P10276 1-462): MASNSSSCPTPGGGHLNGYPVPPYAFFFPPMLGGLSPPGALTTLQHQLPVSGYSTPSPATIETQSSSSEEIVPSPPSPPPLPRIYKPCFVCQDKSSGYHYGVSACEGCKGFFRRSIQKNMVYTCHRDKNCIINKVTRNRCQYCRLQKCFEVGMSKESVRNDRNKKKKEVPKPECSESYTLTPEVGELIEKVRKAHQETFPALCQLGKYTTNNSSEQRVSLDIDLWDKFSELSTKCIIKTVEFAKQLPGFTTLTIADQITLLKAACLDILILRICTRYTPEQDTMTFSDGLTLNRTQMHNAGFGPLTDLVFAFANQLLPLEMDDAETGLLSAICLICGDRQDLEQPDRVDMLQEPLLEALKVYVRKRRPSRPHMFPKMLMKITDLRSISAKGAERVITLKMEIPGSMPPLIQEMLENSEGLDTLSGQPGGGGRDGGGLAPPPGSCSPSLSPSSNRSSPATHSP
Procedure: The antagonistic effects of UAB30 retinoids on the transcription of RARα were determined in CV-1 cells. The methods are nearly identical to those used to perform transcriptional assays. […] After 24 hours, cells were harvested and the transcriptional effects were measured relative CAT activity, after correction with β-gal activity for transfection efficiency. […] All experiments were performed in triplicate, and the data were averaged. […] These assays were performed in CV-1 cells with the RAR or RXR gene and the chloramphenicol acetyltransferase (CAT) reporter gene containing TREpal with a thymidine kinase promoter [(TREpal)2 -tk-CAT]. Twenty-four hours after transfection, cells were treated with a single dose of retinoid and the cell extracts were assayed for b-galactosidase and CAT activity. The antagonistic effects of UAB30 retinoids on the transcription of RAR-α were also determined in CV-1 cells. The methods are nearly identical to those used to perform transcriptional assays. These studies utilized the CAT reporter gene [(TREpal)2 -tk-CAT]. […] After 24 hours, cells were harvested and the transcriptional effects were measured in relative CAT activity, after correction with β-galactosidase activity for transfection efficiency. […] Experiments were performed in triplicate and the data were averaged.

NB4 cells [8] = conditions: alone; previously shown by Breitman and coworkers; cited from earlier work
[9] = read-out: normalized percent inhibition of CFU-GM colony growth, patient J83 (%)
[10] = read-out: normalized percent inhibition of CFU-GM colony growth, patient J84 (%)

With `CC1=C(/C=C/C(C)=C/C=C/C(C)=C/C(=O)O)C(C)(C)CCC1` [(all-E)-RA, all-trans-retinoic acid, reference compound] the EC50 (HL-60 cells) was 120 nM, the “prevention of papilloma (tumor) formation” value (mouse skin papilloma [1]) was 95% and the EC50 (NB4 cells [2]; Homo sapiens, 4-day induction of differentiation) was 610 nM. For the same compound, the EC30 (NB4 cells [2]; in combination with 9-cis-UAB30 (1:10), day 3) was 0.05 µM, the EC30 (NB4 cells [2]; in combination with all-trans-UAB30 (1:10)) was 2.8 µM and the EC30 (NB4 cells [2]; retinoid alone, 3 days) was 0.81 µM. The “ED50 skin antipapilloma assay” value (mouse skin papilloma [3]) was 3.0 nmol, the complete remission rate [4] was 90% and the IC50 (chick skin CRABP) was 600 nM. The inhibition at 0.1 µM (JMML cells; read-out: normalized percent inhibition of CFU-GM colony growth, patient J43 (%), 10^-7 M) was 74%, the inhibition at 0.1 µM (JMML cells; read-out: normalized percent inhibition of CFU-GM colony growth, patient J83 (%), 10^-7 M) was 88% and the inhibition at 0.01 µM (JMML cells; read-out: normalized percent inhibition of CFU-GM colony growth, patient J84 (%), 10^-8 M) was 33%. It also gave an inhibition at 1 µM (JMML cells; read-out: percent inhibition of CFU-GM colony growth (not normalized), 10^-6 M, J43 patient cells) of 85%, an inhibition at 1 µM (JMML cells; read-out: percent inhibition of CFU-GM colony growth (not normalized), 10^-6 M, J83 patient cells) of 78% and an inhibition at 1 µM (JMML cells; read-out: percent inhibition of CFU-GM colony growth (not normalized), 10^-6 M, J84 patient cells) of 61%.

In the case of `CC(=C/C=C/C(C)=C/C(=O)O)/C=C1\CCCc2ccccc21` [(9Z)-UAB30, (2E,4E,6E,8E)-8-(3',4'-Dihydro-1'(2'H)-naphthalen-1'-ylidene)3,7-dimethyl-2,4,6-octatrienoic acid], the EC50 (HL-60 cells) is reported as 8000 nM, the “toxicity” value (in vivo toxicity) is reported as “much less toxic than 9-cis-retinoic acid” and the EC30 (NB4 cells [2]; Homo sapiens, NB-4, 72 h) is reported as > 10000 µM. The EC50 (NB4 cells [2]; Homo sapiens) was 10000 nM, the “NB4 cell differentiation” value (NB4 cells [2]; retinoid alone) was “no effect” and the “overall body growth” value ([5]; 200 mg/kg diet) was “no obvious effect”. The average body weight/rat ([5]; 43 days of age, 200 mg/kg diet from day 53) was 133 grams, the average body weight/rat ([5]; 57 days of age, 200 mg/kg diet) was 158 grams and the average body weight/rat ([5]; 64 days of age, 200 mg/kg diet) was 174 grams. For the same compound, the average body weight/rat ([5]; 71 days of age, 200 mg/kg diet) was 188 grams, the average body weight/rat ([5]; 78 days of age, 200 mg/kg diet) was 197 grams and the average body weight/rat ([5]; 85 days of age, 200 mg/kg diet) was 203 grams. The average body weight/rat ([5]; 92 days of age, 200 mg/kg diet) was 210 grams, the average body weight/rat ([5]; 99 days of age, 200 mg/kg diet) was 211 grams and the average body weight/rat ([5]; 106 days of age, 200 mg/kg diet) was 215 grams. For the same compound, the average body weight/rat ([5]; 113 days of age, 200 mg/kg diet) was 216 grams, the average body weight/rat ([5]; 120 days of age, 200 mg/kg diet) was 218 grams and the average body weight/rat ([5]; 127 days of age, 200 mg/kg diet) was 223 grams. For the same compound, the average body weight/rat ([5]; 134 days of age, 200 mg/kg diet) was 227 grams, the average body weight/rat ([5]; 141 days of age, 200 mg/kg diet) was 236 grams and the average body weight/rat ([5]; 149 days of age, 200 mg/kg diet) was 234 grams. The average body weight/rat ([5]; 155 days of age, 200 mg/kg diet) was 236 grams, the average body weight/rat ([5]; 162 days of age, 200 mg/kg diet) was 238 grams and the average body weight/rat ([5]; 169 days of age, 200 mg/kg diet) was 242 grams. For the same compound, the average body weight/rat ([5]; 176 days of age, 200 mg/kg diet) was 243 grams, the average body weight/rat ([5]; 183 days of age, 200 mg/kg diet) was 244 grams and the “metabolism / metabolic stability” value (NB4 cells [6]) was “metabolically stable for 5 days”. The inhibition at 0.1 µM (JMML cells; [9]) was 76%, the inhibition at 1 µM (JMML cells; [9]) was 79% and the inhibition at 0.01 µM (JMML cells; [10]) was 3%. The inhibition at 0.1 µM (JMML cells; [10]) was 44%, the inhibition at 1 µM (JMML cells; [10]) was 39% and the “growth of MNU-induced mammary cancers” value [7] was “inhibited the growth of the MNU-induced mammary cancers”. For the same compound, the “average mammary tumor weight/rat” value ([7]; 26 days post MNU) was 0.05 grams, the “average mammary tumor weight/rat” value ([7]; 33 days post MNU) was 0.05 grams and the “average mammary tumor weight/rat” value ([7]; 40 days post MNU) was 0.10 grams. The “average mammary tumor weight/rat” value ([7]; 47 days post MNU) was 0.30 grams, the “average mammary tumor weight/rat” value ([7]; 54 days post MNU) was 0.45 grams and the “average mammary tumor weight/rat” value ([7]; 61 days post MNU) was 0.55 grams. For the same compound, the “average mammary tumor weight/rat” value ([7]; 68 days post MNU) was 0.55 grams, the “average mammary tumor weight/rat” value ([7]; 75 days post MNU) was 0.55 grams and the “average mammary tumor weight/rat” value ([7]; 82 days post MNU) was 0.70 grams. For the same compound, the “average mammary tumor weight/rat” value ([7]; 89 days post MNU) was 0.90 grams, the “average mammary tumor weight/rat” value ([7]; 96 days post MNU) was 1.00 grams and the “average mammary tumor weight/rat” value ([7]; 103 days post MNU) was 1.35 grams. For the same compound, the “average mammary tumor weight/rat” value ([7]; 110 days post MNU) was 1.75 grams, the “average mammary tumor weight/rat” value ([7]; 117 days post MNU) was 2.00 grams and the “average mammary tumor weight/rat” value ([7]; 124 days post MNU) was 2.20 grams. The “average mammary tumor weight/rat” value ([7]; 131 days post MNU) was 2.35 grams.

For `CCCCCCCOc1cc2c(cc1/C(C)=C/c1ccc(C(=O)O)cc1)C(C)(C)CCS2(=O)=O` [Ro-41-5253], the “antagonism of (all-E)-RA induced RARα transcription” value (RARα) was “two-fold more active; also recorded: exhibited antagonism at each concentration of (all-E)-RA”.

For `CC1=C(/C=C/C(C)=C/C=C/C(C)=C/C(=O)Nc2ccc(O)cc2)C(C)(C)CCC1` [4-HPR, 4-hydroxyphenylretinamide], the “NB4 cell differentiation” value (NB4 cells [8]) is listed as “does not induce NB4 cells to differentiate”.
